Source: US6914045B2, “Glycopeptide antibiotics” (Wyeth Holdings Corporation, priority 2001, dated 2005)
Values after ≈ are worked out from the molar mass of the structure shown.

How the values were obtained:
Staphylococcus sp. = test: in vitro antibacterial evaluation, MIC by broth dilution; assay type: cell-based; settings: broth dilution, 18 hours at 35° C.
Procedure, shortened: (§1)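 Inoculum 5×10^5 CFU/mL; concentrations 64 to 0.06 μg/mL; MIC defined as lowest inhibitory level. Conducted by broth dilution under NCCLS guidelines.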

Streptococcus sp. = test: as above; assay type: cell-based; settings: broth dilution, 18 hours at 35° C.
Procedure, shortened: as §1

Enterococcus sp. = test: as above; assay type: cell-based; settings: broth dilution, 18 hours at 35° C.
Procedure, shortened: as §1

Escherichia coli = test: as above; assay type: cell-based; settings: 18 hours at 35° C., strain ATCC 25922
Procedure, shortened: as §1

[1] = system: Enterococcus faecalis (GC 2246); test: acute lethal infection in mice; assay type: in vivo; settings: female CD-1 mice, intraperitoneal challenge, intravenous 30 min. after infection, 7 day survival
Procedure, shortened: (§2)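 Female CD-1 mice (20+/−2 gm) were infected intraperitoneally with enough bacteria, suspended in trypticase soy broth or hog gastric mucin, to kill untreated controls within 24-48 hr. Compound in saline or 5% dextrose was given intravenously 30 min post-infection, five mice per dose. ED50 came from pooled 7 day survival of 3 tests.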

[2] = system: Staphylococcus aureus-SMITH (GC 4543); test: acute lethal infection in mice; assay type: in vivo; settings: acute lethal infection, female CD-1 mice, intraperitoneal challenge, intravenous 30 min. after infection, 7 day survival
Procedure, shortened: as §2

CCCC(CCC)C(=O)OCC1OC(OC2C(CO)OC(Oc3ccc(CC4NC(=O)C(C(C)c5ccccc5)NC(=O)CNC(=O)C(CO)NC(=O)C(C(O)C5CNC(=N)N5C5OC(CO)C(O)C(O)C5O)NC(=O)C(C(O)C5CNC(=N)N5)NC4=O)cc3)C(O)C2O)C(O)C(O)C1O (stereo not drawn) [Example 99c, Cyclo[glycyl-β-methylphenylalanyl-O-[4-O-[6-O-(2-propylpentanoyl)hexopyranosyl]-hexolpyranosyl]tyrosyl-3-(2-iminoimidazolidin-4-yl)seryl-3-(3-hexopyranosyl-2-iminoimidazolidin-4-yl)serylseryl]]
MIC Coagulase Negative Staphylococcus (GC 4547) (Staphylococcus sp.): 1 µg/mL (≈ 0.703 µM)
MIC Coagulase Negative Staphylococcus (GC 4548) (Staphylococcus sp.): 1 µg/mL (≈ 0.703 µM)
MIC Coagulase Negative Staphylococcus (GC 4549) (Staphylococcus sp.): 1 µg/mL (≈ 0.703 µM)
MIC Coagulase Negative Staphylococcus (GC 4551) (Staphylococcus sp.): 2 µg/mL (≈ 1.41 µM)
MIC Coagulase Negative Staphylococcus (ID-3941) (Staphylococcus sp.): 1 µg/mL (≈ 0.703 µM)
MIC Staphylococcus aureus (ATCC 29213) (Staphylococcus sp.): 1 µg/mL (≈ 0.703 µM)
MIC Staphylococcus aureus (GC 1131) (Staphylococcus sp.): 2 µg/mL (≈ 1.41 µM)
MIC Staphylococcus aureus (GC 4541) (Staphylococcus sp.): 2 µg/mL (≈ 1.41 µM)
MIC Staphylococcus aureus (GC 4542) (Staphylococcus sp.): 1 µg/mL (≈ 0.703 µM)
MIC Staphylococcus aureus (GC 4544) (Staphylococcus sp.): 2 µg/mL (≈ 1.41 µM)
MIC Staphylococcus aureus (GC 4545) (Staphylococcus sp.): 1 µg/mL (≈ 0.703 µM)
MIC Staphylococcus aureus-SMITH (GC 4543) (Staphylococcus sp.): 1 µg/mL (≈ 0.703 µM)
MIC Staphylococcus haemolyticus (GC 4546) (Staphylococcus sp.): 1 µg/mL (≈ 0.703 µM)
MIC Staphylococcus haemolyticus (GC 4546) (Staphylococcus sp.; strain GC 4546): 1 µg/mL (≈ 0.703 µM)
MIC Coagulase Negative Staphylococcus (GC 4547) (Staphylococcus sp.; strain GC 4547): 1 µg/mL (≈ 0.703 µM)
MIC Coagulase Negative Staphylococcus (GC 4548) (Staphylococcus sp.; strain GC 4548): 1 µg/mL (≈ 0.703 µM)
MIC Coagulase Negative Staphylococcus (GC 4549) (Staphylococcus sp.; strain GC 4549): 1 µg/mL (≈ 0.703 µM)
MIC Coagulase Negative Staphylococcus (GC 4551) (Staphylococcus sp.; strain GC 4551): 2 µg/mL (≈ 1.41 µM)
MIC Coagulase Negative Staphylococcus (ID-3941) (Staphylococcus sp.; strain ID-3941): 1 µg/mL (≈ 0.703 µM)
MIC Staphylococcus aureus-SMITH (GC 4543) (Staphylococcus sp.; strain SMITH GC 4543): 1 µg/mL (≈ 0.703 µM)
MIC Staphylococcus aureus (ATCC 29213) (Staphylococcus sp.; strain ATCC 29213): 1 µg/mL (≈ 0.703 µM)
MIC Staphylococcus aureus (GC 1131) (Staphylococcus sp.; strain GC 1131): 2 µg/mL (≈ 1.41 µM)
MIC Staphylococcus aureus (GC 4541) (Staphylococcus sp.; strain GC 4541): 2 µg/mL (≈ 1.41 µM)
MIC Staphylococcus aureus (GC 4542) (Staphylococcus sp.; strain GC 4542): 1 µg/mL (≈ 0.703 µM)
MIC Staphylococcus aureus (GC 4544) (Staphylococcus sp.; strain GC 4544): 2 µg/mL (≈ 1.41 µM)
MIC Staphylococcus aureus (GC 4545) (Staphylococcus sp.; strain GC 4545): 1 µg/mL (≈ 0.703 µM)
MIC Streptococcus agalactiae (GC 4564) (Streptococcus sp.; Streptococcus agalactiae (GC 4564)): <0.5 µg/mL
MIC Streptococcus pneumoniae (GC 4565) (Streptococcus sp.; Streptococcus pneumoniae (GC 4565)): <0.5 µg/mL
MIC Streptococcus pyogenes (ID-3187) (Streptococcus sp.; Streptococcus pyogenes (ID-3187)): <0.5 µg/mL
MIC Streptococcus agalactiae (GC 4564) (Streptococcus sp.; strain GC 4564): <0.5 µg/mL
MIC Streptococcus pneumoniae (GC 4565) (Streptococcus sp.; strain GC 4565): <0.5 µg/mL
MIC Streptococcus pyogenes (ID-3187) (Streptococcus sp.; strain ID-3187): <0.5 µg/mL
MIC Enterococcus avium (GC 4558) (Enterococcus sp.; Enterococcus avium (GC 4558)): 4 µg/mL (≈ 2.81 µM)
MIC Enterococcus faecalis (ATCC 29212) (Enterococcus sp.; Enterococcus faecalis (ATCC 29212)): 4 µg/mL (≈ 2.81 µM)
MIC Enterococcus faecalis (GC 2242) (Enterococcus sp.; Enterococcus faecalis (GC 2242)): 4 µg/mL (≈ 2.81 µM)
MIC Enterococcus faecalis (GC 4552) (Enterococcus sp.; Enterococcus faecalis (GC 4552)): 4 µg/mL (≈ 2.81 µM)
MIC Enterococcus faecalis (GC 4553) (Enterococcus sp.; Enterococcus faecalis (GC 4553)): 4 µg/mL (≈ 2.81 µM)
MIC Enterococcus faecalis (GC 4554) (Enterococcus sp.; Enterococcus faecalis (GC 4554)): 4 µg/mL (≈ 2.81 µM)
MIC Enterococcus faecium (GC 2243) (Enterococcus sp.; Enterococcus faecium (GC 2243)): 4 µg/mL (≈ 2.81 µM)
MIC Enterococcus faecium (GC 4556) (Enterococcus sp.; Enterococcus faecium (GC 4556)): 4 µg/mL (≈ 2.81 µM)
MIC Enterococcus faecium (GC 4557) (Enterococcus sp.; Enterococcus faecium (GC 4557)): 2 µg/mL (≈ 1.41 µM)
MIC Enterococcus faecalis (ATCC 29212) (Enterococcus sp.; strain ATCC 29212): 4 µg/mL (≈ 2.81 µM)
MIC Enterococcus faecalis (GC 2242) (Enterococcus sp.; strain GC 2242): 4 µg/mL (≈ 2.81 µM)
MIC Enterococcus faecium (GC 2243) (Enterococcus sp.; strain GC 2243): 4 µg/mL (≈ 2.81 µM)
MIC Enterococcus faecalis (GC 4552) (Enterococcus sp.; strain GC 4552): 4 µg/mL (≈ 2.81 µM)
MIC Enterococcus faecalis (GC 4553) (Enterococcus sp.; strain GC 4553): 4 µg/mL (≈ 2.81 µM)
MIC Enterococcus faecalis (GC 4554) (Enterococcus sp.; strain GC 4554): 4 µg/mL (≈ 2.81 µM)
MIC Enterococcus faecium (GC 4556) (Enterococcus sp.; strain GC 4556): 4 µg/mL (≈ 2.81 µM)
MIC Enterococcus faecium (GC 4557) (Enterococcus sp.; strain GC 4557): 2 µg/mL (≈ 1.41 µM)
MIC Enterococcus avium (GC 4558) (Enterococcus sp.; strain GC 4558): 4 µg/mL (≈ 2.81 µM)
MIC Escherichia coli (ATCC 25922) (Escherichia coli): 64 µg/mL (≈ 45 µM)
median effective dose (ED50), Enterococcus faecalis (GC 2246) [1]: 4.3 mg/kg
median effective dose (ED50), Staphylococcus aureus-SMITH (GC 4543) [2]: 0.52 mg/kg
